Data: US20090088345A1, “NECESSARY AND SUFFICIENT REAGENT SETS FOR CHEMOGENOMIC ANALYSIS” (priority 2004, published 2009)

Test system: PPARα signature
Assay: Scalar product (signature score) of compound treatments against PPARα gene signatures from rat liver microarray expression profiles
Assay type: in vivo
Settings: previous observation, original PPARα signature
Description: “Scalar product” (or “Signature score”) as used herein refers to the sum of impacts for all genes in a signature less the bias for that signature.
The detailed description of the construction of this chemogenomic dataset is described in Examples 1 and 2 of Published U.S. Pat. Appl. No. 2005/0060102 A1, published Mar. 17, 2005, which is hereby incorporated by reference for all purposes. Briefly, in vivo short-term repeat dose rat studies were conducted on over 580 test compounds, including marketed and withdrawn drugs, environmental and industrial toxicants, and standard biochemical reagents. Rats (three per group) were dosed daily at either a low or high dose. The low dose was an efficacious dose estimated from the literature and the high dose was an empirically-determined maximum tolerated dose, defined as the dose that causes a 50% decrease in body weight gain relative to controls during the course of the 5 day range finding study. Animals were necropsied on days 0.25, 1, 3, and 5 or 7. […]
Log10-ratios are computed for each gene as the difference of the averaged logs of the experimental signals from (usually) three drug-treated animals and the averaged logs of the control signals from (usually) 20 mock vehicle-treated animals. To assign a significance level to each gene expression change, the standard error for the measured change between the experiments and controls is computed. […]

CC(C)(Oc1ccc(Cl)cc1)C(=O)O [clofibric acid]
scalar product against the PPARα signature: weakest of the known PPARα agonists
